For one compound, enrich.exp.med, enrich.exp.med.lin and enrich.exp.med.log2 results are on record in publication PMC10176470, “Engaging a Non-catalytic Cysteine Residue Drives Potent and Selective Inhibition of Caspase-6” (Journal of the American Chemical Society, 2023).

Molecules are shown by their SMILES. Like-named read-outs stand apart in the source and are kept apart here.

Format in all cases: cell-based
Assay [1] has as its target T1, proteins of HEK293T cells transiently overexpressing caspase-6 (Homo sapiens, UniProt P55060).
T1 sequence (P55060 1-971): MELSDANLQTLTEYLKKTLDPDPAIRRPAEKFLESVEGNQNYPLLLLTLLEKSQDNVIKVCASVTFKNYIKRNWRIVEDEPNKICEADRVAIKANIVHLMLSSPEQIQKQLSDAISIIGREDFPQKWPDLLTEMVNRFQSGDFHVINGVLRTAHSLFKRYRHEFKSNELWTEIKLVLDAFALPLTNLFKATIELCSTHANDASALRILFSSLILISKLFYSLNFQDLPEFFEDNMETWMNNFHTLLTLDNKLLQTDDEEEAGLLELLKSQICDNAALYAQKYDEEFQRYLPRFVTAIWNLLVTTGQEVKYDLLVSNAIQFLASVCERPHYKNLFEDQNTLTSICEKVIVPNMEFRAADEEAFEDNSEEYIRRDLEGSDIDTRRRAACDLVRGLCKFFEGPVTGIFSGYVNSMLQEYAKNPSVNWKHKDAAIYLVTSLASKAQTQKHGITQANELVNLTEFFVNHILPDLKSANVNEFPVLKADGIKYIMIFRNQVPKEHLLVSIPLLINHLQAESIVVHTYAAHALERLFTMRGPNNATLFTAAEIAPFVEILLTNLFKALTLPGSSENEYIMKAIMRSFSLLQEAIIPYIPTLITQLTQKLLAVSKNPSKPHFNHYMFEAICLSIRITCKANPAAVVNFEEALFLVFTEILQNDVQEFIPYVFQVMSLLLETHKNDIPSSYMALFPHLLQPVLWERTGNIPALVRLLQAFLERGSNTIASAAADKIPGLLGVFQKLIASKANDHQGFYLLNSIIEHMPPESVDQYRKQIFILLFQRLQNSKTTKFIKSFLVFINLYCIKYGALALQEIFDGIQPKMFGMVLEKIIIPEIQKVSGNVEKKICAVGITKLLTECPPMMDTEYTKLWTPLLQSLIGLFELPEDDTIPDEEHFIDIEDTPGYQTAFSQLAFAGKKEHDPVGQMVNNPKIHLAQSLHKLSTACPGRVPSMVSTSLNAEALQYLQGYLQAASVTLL
The note with it: protein CSE1L (P55060).

Assay [2] has as its target proteins of HEK293T cells transiently overexpressing caspase-6 (Homo sapiens, UniProt Q9Y2X3). The conditions noted are these: protein NOP58 (Q9Y2X3); exp_ref Probe; analysis C6.
Assay [3] deals with T2, proteins of HEK293T cells transiently overexpressing caspase-6 (Homo sapiens, UniProt P29401).
T2 sequence (P29401 1-623): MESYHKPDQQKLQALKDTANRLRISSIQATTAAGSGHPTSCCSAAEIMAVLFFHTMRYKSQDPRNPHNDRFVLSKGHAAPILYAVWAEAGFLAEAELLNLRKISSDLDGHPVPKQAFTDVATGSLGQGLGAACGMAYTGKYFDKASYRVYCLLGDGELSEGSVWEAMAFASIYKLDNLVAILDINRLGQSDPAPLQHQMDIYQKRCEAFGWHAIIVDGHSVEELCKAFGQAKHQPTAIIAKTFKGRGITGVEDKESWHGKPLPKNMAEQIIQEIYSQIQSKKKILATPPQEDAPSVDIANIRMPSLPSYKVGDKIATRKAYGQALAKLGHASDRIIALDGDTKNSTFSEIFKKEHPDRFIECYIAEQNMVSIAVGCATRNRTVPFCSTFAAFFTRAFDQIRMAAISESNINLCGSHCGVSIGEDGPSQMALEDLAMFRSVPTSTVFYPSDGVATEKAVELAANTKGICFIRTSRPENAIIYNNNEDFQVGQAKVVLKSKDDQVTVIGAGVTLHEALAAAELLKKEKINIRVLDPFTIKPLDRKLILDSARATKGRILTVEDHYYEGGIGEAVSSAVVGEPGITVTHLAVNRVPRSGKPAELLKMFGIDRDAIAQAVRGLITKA

In assay [4] the target is proteins of HEK293T cells transiently overexpressing caspase-6 (Homo sapiens, UniProt Q92841). The note with it: exp_ref Probe; protein DDX17 (Q92841); analysis C6.
For assay [5], the target named is proteins of HEK293T cells transiently overexpressing caspase-6 (Homo sapiens, UniProt Q9H7Z7). The note with it: protein PTGES2 (Q9H7Z7).
Assay [6] addresses proteins of HEK293T cells transiently overexpressing caspase-6 (Homo sapiens, UniProt P04264). The conditions noted are these: Probe; protein KRT1 P04264.
In assay [7] the target is proteins of HEK293T cells transiently overexpressing caspase-6 (Homo sapiens, UniProt O43707). The conditions noted are these: protein ACTN4 (O43707).
Assay [8] deals with proteins of HEK293T cells transiently overexpressing caspase-6 (Homo sapiens, UniProt P63261). The note with it: exp_ref Probe; protein ACTG1 (P63261); analysis C6.
For assay [9], the target named is proteins of HEK293T cells transiently overexpressing caspase-6 (Homo sapiens, UniProt Q96SB4). The note with it: protein SRPK1 (Q96SB4); exp_ref Probe; analysis C6.
In assay [10] the target is proteins of HEK293T cells transiently overexpressing caspase-6 (Homo sapiens, UniProt P18124). The note with it: Probe; protein RPL7 P18124.
Assay [11] addresses proteins of HEK293T cells transiently overexpressing caspase-6 (Homo sapiens, UniProt P12004). The note with it: protein PCNA (P12004).
The target in assay [12] is proteins of HEK293T cells transiently overexpressing caspase-6 (Homo sapiens, UniProt Q99714). The note with it: exp_ref Probe; protein HSD17B10 (Q99714); analysis C6.
Chain of proteins of HEK293T cells transiently overexpressing caspase-6 (Homo sapiens, UniProt Q99714) (Q99714 whole entry): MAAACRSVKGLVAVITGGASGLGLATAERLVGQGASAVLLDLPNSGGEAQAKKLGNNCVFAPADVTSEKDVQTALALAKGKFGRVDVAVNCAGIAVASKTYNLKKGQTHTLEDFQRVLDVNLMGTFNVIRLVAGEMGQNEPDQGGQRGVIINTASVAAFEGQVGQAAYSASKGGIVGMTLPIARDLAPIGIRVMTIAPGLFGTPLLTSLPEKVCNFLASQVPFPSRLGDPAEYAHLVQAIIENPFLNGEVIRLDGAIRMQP

Chain of proteins of HEK293T cells transiently overexpressing caspase-6 (Homo sapiens, UniProt O43707) (O43707 whole entry): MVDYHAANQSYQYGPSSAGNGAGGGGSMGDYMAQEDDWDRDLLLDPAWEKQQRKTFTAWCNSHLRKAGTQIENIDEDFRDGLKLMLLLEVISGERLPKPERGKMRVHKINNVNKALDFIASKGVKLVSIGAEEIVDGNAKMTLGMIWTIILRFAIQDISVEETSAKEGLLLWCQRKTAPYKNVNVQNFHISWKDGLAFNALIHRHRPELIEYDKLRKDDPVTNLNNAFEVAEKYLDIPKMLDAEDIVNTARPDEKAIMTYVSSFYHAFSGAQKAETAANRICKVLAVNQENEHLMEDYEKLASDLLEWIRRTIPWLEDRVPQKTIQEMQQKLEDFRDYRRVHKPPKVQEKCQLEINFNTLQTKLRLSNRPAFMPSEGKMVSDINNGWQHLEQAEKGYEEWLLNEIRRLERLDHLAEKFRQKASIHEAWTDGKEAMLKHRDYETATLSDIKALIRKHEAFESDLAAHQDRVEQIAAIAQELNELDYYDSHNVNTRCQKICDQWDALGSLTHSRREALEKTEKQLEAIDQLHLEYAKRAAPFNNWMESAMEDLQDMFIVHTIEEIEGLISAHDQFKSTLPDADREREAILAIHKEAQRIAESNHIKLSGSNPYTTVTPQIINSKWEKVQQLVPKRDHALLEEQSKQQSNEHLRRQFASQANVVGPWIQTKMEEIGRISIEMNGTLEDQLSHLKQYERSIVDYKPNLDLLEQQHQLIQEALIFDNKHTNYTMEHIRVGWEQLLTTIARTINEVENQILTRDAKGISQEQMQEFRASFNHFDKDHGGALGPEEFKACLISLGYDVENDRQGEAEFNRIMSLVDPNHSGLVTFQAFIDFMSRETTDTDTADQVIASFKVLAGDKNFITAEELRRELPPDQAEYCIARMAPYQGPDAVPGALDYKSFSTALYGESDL
Chain of proteins of HEK293T cells transiently overexpressing caspase-6 (Homo sapiens, UniProt Q9H7Z7) (Q9H7Z7 whole entry): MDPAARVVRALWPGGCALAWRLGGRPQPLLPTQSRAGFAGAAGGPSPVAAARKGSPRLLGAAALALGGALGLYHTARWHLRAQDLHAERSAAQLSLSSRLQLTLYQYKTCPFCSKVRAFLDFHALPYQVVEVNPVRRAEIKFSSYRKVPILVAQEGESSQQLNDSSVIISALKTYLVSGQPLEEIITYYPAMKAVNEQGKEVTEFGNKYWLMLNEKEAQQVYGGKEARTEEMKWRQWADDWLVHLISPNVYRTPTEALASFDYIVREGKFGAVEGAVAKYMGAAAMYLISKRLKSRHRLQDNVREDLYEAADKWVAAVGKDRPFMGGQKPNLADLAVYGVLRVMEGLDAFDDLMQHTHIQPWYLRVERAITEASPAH
Chain of proteins of HEK293T cells transiently overexpressing caspase-6 (Homo sapiens, UniProt P12004) (P12004 whole entry): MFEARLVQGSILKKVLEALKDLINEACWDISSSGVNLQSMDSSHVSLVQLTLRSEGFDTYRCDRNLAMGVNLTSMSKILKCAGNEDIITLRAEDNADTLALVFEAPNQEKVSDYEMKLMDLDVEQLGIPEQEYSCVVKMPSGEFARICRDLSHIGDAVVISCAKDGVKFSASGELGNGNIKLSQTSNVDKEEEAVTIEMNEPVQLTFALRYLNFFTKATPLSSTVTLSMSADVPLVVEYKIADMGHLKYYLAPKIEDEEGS
Chain of proteins of HEK293T cells transiently overexpressing caspase-6 (Homo sapiens, UniProt Q9Y2X3) (Q9Y2X3 whole entry): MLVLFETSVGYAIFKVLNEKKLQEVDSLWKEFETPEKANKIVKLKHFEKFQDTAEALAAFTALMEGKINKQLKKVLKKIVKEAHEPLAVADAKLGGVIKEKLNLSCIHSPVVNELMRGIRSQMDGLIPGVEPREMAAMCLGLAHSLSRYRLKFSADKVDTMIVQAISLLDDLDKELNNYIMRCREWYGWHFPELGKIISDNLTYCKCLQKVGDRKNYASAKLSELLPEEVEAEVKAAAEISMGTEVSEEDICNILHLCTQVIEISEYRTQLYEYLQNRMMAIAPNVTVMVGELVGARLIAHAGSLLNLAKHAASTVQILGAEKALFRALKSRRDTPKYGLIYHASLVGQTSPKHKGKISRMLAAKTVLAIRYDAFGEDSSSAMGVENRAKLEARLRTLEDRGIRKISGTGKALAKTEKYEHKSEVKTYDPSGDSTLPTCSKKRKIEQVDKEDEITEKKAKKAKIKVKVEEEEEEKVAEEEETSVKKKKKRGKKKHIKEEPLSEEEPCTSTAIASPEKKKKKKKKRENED
Chain of proteins of HEK293T cells transiently overexpressing caspase-6 (Homo sapiens, UniProt Q96SB4) (Q96SB4 whole entry): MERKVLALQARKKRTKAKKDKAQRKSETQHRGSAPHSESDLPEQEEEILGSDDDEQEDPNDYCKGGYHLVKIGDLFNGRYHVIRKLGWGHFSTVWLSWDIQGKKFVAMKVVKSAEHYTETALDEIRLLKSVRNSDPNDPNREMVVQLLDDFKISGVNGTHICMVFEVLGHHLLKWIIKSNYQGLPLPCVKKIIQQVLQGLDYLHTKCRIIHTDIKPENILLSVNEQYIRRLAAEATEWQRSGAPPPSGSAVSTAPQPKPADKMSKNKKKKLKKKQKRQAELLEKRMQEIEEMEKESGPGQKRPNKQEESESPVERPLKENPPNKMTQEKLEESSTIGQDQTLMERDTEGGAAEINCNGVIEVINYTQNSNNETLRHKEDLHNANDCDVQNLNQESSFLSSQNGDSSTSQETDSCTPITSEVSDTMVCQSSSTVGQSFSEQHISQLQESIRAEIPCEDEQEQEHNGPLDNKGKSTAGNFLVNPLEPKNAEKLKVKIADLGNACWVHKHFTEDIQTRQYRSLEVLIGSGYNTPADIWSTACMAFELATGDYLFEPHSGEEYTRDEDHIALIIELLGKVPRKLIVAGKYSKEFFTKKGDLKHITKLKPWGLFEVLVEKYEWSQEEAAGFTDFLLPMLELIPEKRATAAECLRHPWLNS
Chain of proteins of HEK293T cells transiently overexpressing caspase-6 (Homo sapiens, UniProt P04264) (P04264 whole entry): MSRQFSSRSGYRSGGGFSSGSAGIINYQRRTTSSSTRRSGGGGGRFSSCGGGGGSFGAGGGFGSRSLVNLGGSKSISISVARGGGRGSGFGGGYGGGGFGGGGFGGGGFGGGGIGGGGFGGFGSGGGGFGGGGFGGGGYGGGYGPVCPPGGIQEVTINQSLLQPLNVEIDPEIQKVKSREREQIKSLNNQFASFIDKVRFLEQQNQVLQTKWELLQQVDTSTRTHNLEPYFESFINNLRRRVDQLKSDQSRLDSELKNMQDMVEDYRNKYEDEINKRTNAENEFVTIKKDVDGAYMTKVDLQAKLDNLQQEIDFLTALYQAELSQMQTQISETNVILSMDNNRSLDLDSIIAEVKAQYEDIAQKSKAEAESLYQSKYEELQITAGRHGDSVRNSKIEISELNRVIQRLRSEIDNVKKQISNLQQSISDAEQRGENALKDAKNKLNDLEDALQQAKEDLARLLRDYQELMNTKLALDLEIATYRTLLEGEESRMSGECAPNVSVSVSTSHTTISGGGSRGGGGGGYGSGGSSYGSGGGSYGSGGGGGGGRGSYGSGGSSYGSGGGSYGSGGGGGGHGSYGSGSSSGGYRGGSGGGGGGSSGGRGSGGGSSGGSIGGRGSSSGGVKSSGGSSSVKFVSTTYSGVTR
Chain of proteins of HEK293T cells transiently overexpressing caspase-6 (Homo sapiens, UniProt Q92841) (Q92841 whole entry): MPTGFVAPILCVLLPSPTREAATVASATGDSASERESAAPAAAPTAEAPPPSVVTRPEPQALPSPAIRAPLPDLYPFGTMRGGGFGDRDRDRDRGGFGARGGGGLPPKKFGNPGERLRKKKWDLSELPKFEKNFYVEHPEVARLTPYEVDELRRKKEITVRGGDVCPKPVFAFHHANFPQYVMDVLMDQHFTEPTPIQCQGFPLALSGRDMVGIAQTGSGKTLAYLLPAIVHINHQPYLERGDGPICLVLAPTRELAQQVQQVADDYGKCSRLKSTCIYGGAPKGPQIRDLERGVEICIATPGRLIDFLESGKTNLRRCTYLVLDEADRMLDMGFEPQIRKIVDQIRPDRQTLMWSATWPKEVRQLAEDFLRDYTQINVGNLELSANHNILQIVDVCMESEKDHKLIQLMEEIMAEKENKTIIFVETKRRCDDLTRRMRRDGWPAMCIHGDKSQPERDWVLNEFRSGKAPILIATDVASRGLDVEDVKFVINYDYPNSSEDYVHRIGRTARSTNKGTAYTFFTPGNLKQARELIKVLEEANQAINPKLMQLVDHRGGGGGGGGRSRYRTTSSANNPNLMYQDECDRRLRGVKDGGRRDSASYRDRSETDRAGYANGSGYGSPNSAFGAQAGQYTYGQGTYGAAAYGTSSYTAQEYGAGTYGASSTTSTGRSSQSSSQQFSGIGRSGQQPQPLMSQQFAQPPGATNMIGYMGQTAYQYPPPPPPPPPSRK

As to `C#CCOc1ccc([C@@H]2C[C@@H](C(=O)Nc3ccc(OC(F)(F)F)cc3)CN(S(=O)(=O)C=C)C2)cc1` (relative stereo) [13-t], the enrich.exp.med in [1] (exp_ref Probe, analysis C6) is listed as 1.237; in assay [2] it was 1.504; in assay [3] (Probe, protein TKT P29401), -0.5472; in assay [4] it was 0.3365; in [5] (exp_ref Probe, analysis C6) it was 3.034; in [6], -8.014. Moreover, the enrich.exp.med is 0.6607 in assay [7] (exp_ref Probe, analysis C6); 0.6252 in [8]; 1.262 in assay [9]; -0.45 in assay [10]; 0.8638 in [11] (exp_ref Probe, analysis C6); 0.1684 in assay [12]. In addition, the enrich.exp.med.lin in assay [1] is 2.357; in [3] (protein TKT (P29401)) it was 0.6843; in assay [5] it was 8.188; in assay [5] (Expt Probe, analysis C6), 8.188; in assay [7] it was 1.581; in assay [11], 1.82. The enrich.exp.med.log2 is 1.237 in [1]; -0.5472 in assay [3] (protein TKT (P29401)); 3.034 in assay [5]; 3.034 in assay [5] (Expt Probe, analysis C6); 0.6607 in [7]; 0.8638 in [11].
